# Laboratory results reported in ChEMBL document CHEMBL1201862, “PubChem BioAssay data set” (2004).
#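 Where inhibition never reached the appropriate level, the endpoint shown equals the highest concentration tested. Otherwise, values were interpolated linearly from a five-concentration, 48-hour dose response in 96-well plates. GI50 is the concentration that inhibits growth by half.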 Active and inactive are the calls of the source. No stated cut-off is given here; in the data, active = GI50 up to about 1.1 µM and inactive = higher.
# Columns and labels:
# Assay in all cases: DTP human tumour cell line panel, 48 h
# [1] = system: MOLT-4
# [2] = system: U-251
# [3] = system: Hs-578T
# [4] = system: EKVX
# [5] = system: HCC 2998
# [6] = system: HT-29
# [7] = system: NCI-H460
# [8] = system: UACC-257
# [9] = system: KM12
# [10] = system: MDA-MB-435
# [11] = system: K562
# [12] = system: M14
# [13] = system: UACC-62
# [14] = system: TK-10
# [15] = system: PC-3
# [16] = system: IGROV-1
# [17] = system: MDA-MB-231
# [18] = system: A549
# [19] = system: CAKI-1
# [20] = system: ACHN
Structure (SMILES),GI50 [1],GI50 [2],GI50 [3],GI50 [4],GI50 [5],GI50 [6],GI50 [7],GI50 [8],GI50 [9],GI50 [10],GI50 [11],GI50 [12],GI50 [13],GI50 [14],GI50 [15],GI50 [16],GI50 [17],GI50 [18],GI50 [19],GI50 [20]
Cc1n[nH]c(C(F)(F)F)c1/N=N/N1CCOCC1,1.84 µM (inactive),12 µM (inactive),13 µM (inactive),5.74 µM (inactive),1.53 µM (inactive),3.24 µM (inactive),4.27 µM (inactive),9.77 µM (inactive),6.37 µM (inactive),12.2 µM (inactive),1.08 µM (active),14.7 µM (inactive),11 µM (inactive),12 µM (inactive),7.16 µM (inactive),10.7 µM (inactive),12.8 µM (inactive),8.89 µM (inactive),1.9 µM (inactive),4.52 µM (inactive)
O=C(/C=C/c1cccs1)c1cccc(C(=O)/C=C/c2cccs2)n1,2.29 µM (inactive),9.1 µM (inactive),23.8 µM (inactive),> 100 µM (inactive),> 100 µM (inactive),6.21 µM (inactive),> 100 µM (inactive),> 100 µM (inactive),6.43 µM (inactive),52.7 µM (inactive),3.93 µM (inactive),> 91.2 µM (inactive),> 31.2 µM (inactive),> 100 µM (inactive),36.3 µM (inactive),27.7 µM (inactive),63.2 µM (inactive),> 84.3 µM (inactive),61.4 µM (inactive),11.5 µM (inactive)
Clc1cc(OCC23CC4CC(CC(C4)C2)C3)nc(OCC23CC4CC(CC(C4)C2)C3)n1,> 100 µM (inactive),> 100 µM (inactive),> 100 µM (inactive),> 100 µM (inactive),> 100 µM (inactive),> 100 µM (inactive),> 100 µM (inactive),> 100 µM (inactive),> 100 µM (inactive),> 100 µM (inactive),> 100 µM (inactive),> 100 µM (inactive),> 100 µM (inactive),> 100 µM (inactive),> 100 µM (inactive),> 100 µM (inactive),> 100 µM (inactive),> 100 µM (inactive),> 100 µM (inactive),> 100 µM (inactive)
COc1ccc2c(c1)/C(=C\c1c(Cl)nc3sc(C)cn13)C(=O)N2,1.54 µM (inactive),3.21 µM (inactive),2.74 µM (inactive),7.59 µM (inactive),6.43 µM (inactive),2.41 µM (inactive),2.51 µM (inactive),4.11 µM (inactive),1.71 µM (inactive),0.286 µM (active),0.521 µM (active),2.69 µM (inactive),3.29 µM (inactive),6.37 µM (inactive),2.78 µM (inactive),3.72 µM (inactive),5.65 µM (inactive),3.79 µM (inactive),3.37 µM (inactive),6.95 µM (inactive)
Cn1c(=O)nc2n(-c3ccc(Cl)cc3)c3cc(Cl)ccc3nc-2c1=O,3.61 µM (inactive),17.7 µM (inactive),2.48 µM (inactive),8.85 µM (inactive),4.49 µM (inactive),2.62 µM (inactive),10 µM (inactive),1.82 µM (inactive),5.52 µM (inactive),1.68 µM (inactive),2.37 µM (inactive),2.07 µM (inactive),1.88 µM (inactive),20 µM (inactive),9.42 µM (inactive),1.6 µM (inactive),3.17 µM (inactive),12.9 µM (inactive),10.9 µM (inactive),12.6 µM (inactive)
CSc1nc(O)c(C#N)c(-c2ccc(Cl)cc2)n1,> 100 µM (inactive),97.9 µM (inactive),64.9 µM (inactive),> 100 µM (inactive),> 100 µM (inactive),> 100 µM (inactive),> 100 µM (inactive),> 100 µM (inactive),> 100 µM (inactive),> 100 µM (inactive),> 100 µM (inactive),> 100 µM (inactive),73.6 µM (inactive),> 100 µM (inactive),91.4 µM (inactive),> 100 µM (inactive),> 100 µM (inactive),> 100 µM (inactive),> 100 µM (inactive),> 100 µM (inactive)
CC(=O)NNc1nc(C)c(C(/C=C/c2ccc([N+](=O)[O-])cc2)=N/N)s1,> 100 µM (inactive),> 100 µM (inactive),> 100 µM (inactive),94.4 µM (inactive),66.1 µM (inactive),> 100 µM (inactive),> 100 µM (inactive),88.1 µM (inactive),> 100 µM (inactive),> 100 µM (inactive),55.5 µM (inactive),> 100 µM (inactive),> 100 µM (inactive),37.9 µM (inactive),> 100 µM (inactive),54 µM (inactive),25.4 µM (inactive),> 100 µM (inactive),> 100 µM (inactive),> 100 µM (inactive)
CO[C@]1(c2ccc([N+](=O)[O-])cc2)Oc2ccccc2C(=O)[C@@]1(Nc1ccc(C=O)cc1)OC,> 10 µM (inactive),> 10 µM (inactive),> 10 µM (inactive),> 10 µM (inactive),> 10 µM (inactive),> 10 µM (inactive),> 10 µM (inactive),> 10 µM (inactive),> 10 µM (inactive),> 10 µM (inactive),> 10 µM (inactive),> 10 µM (inactive),> 10 µM (inactive),> 10 µM (inactive),> 10 µM (inactive),> 10 µM (inactive),> 10 µM (inactive),> 10 µM (inactive),> 10 µM (inactive),> 10 µM (inactive)
NCCCNCCCCN1CC1,1.26 µM (inactive),2.84 µM (inactive),1.08 µM (active),4.61 µM (inactive),7.06 µM (inactive),7.05 µM (inactive),16.7 µM (inactive),1.39 µM (inactive),6.98 µM (inactive),3.6 µM (inactive),2.49 µM (inactive),11.4 µM (inactive),3.99 µM (inactive),5.96 µM (inactive),5.69 µM (inactive),3.84 µM (inactive),1.4 µM (inactive),9.57 µM (inactive),0.0486 µM (active),1.3 µM (inactive)
C[C@]12OC(=O)[C@]3(O)CC[C@H]4[C@@H](C[C@@H](O)[C@@]5(Cl)CC=CC(=O)[C@]45C)[C@]45OCC6C(=O)O[C@@H]1C[C@@]6(C)[C@H](C4=O)[C@@]32O5 (stereo not given in full),0.615 µM (active),1.5 µM (inactive),6.44 µM (inactive),1.24 µM (inactive),0.0946 µM (active),1.55 µM (inactive),1.89 µM (inactive),2.01 µM (inactive),2.15 µM (inactive),2 µM (inactive),0.469 µM (active),1.13 µM (inactive),0.879 µM (active),1.6 µM (inactive),2.3 µM (inactive),1 µM (active),3.02 µM (inactive),3.37 µM (inactive),0.787 µM (active),1.05 µM (active)
COC1C(N)C(OC2C(Oc3cccc4c(O)c5c(=O)oc6ccc(C)c7c(=O)oc(c34)c5c67)OC(C)C(O)C2(C)O)OC(C)C1O (stereo not given),< 0.0243 µM (active),< 0.01 µM (active),< 0.01 µM (active),0.156 µM (active),0.11 µM (active),< 0.0168 µM (active),< 0.0122 µM (active),0.0658 µM (active),0.0313 µM (active),0.0313 µM (active),< 0.0154 µM (active),0.0789 µM (active),0.0208 µM (active),0.0643 µM (active),0.0246 µM (active),< 0.0197 µM (active),0.109 µM (active),0.0634 µM (active),0.0159 µM (active),0.0399 µM (active)
